Data from US9708628B2, “Cationic lipid having improved intracellular kinetics” (NOF CORPORATION, priority 2011, dated 2017).

Key:
[1] = Particle size and surface potential of siRNA MENDs prepared by t-BuOH injecting method; type: physicochemical; settings: siRNA MEND, cationic lipid/cholesterol=70/30, DMG-PEG2000 3%
Description: A lipid solution in t-BuOH with a composition of cationic lipid/cholesterol=70/30, DMG-PEG2000 3% and a total lipid amount of 3000 nmol/400 μL (7.5 mM) was prepared in a 1.7 mL tube. In a separate 1.7 mL tube, an siRNA solution was prepared by mixing an siRNA aqueous solution containing siRNA (160 μg) and 20 mM malate buffer (pH 4.00, 30 mM NaCl) to total 50 μL. With vigorous stirring of the lipid solution, the siRNA solution was gradually added dropwise, and the mixed solution was taken in a 1 mL syringe. Then, 20 mM malate buffer (pH 4.00, 30 mM NaCl, 2 mL) was added into a 5 mL tube, and the mixed solution was gradually injected with vigorous stirring. Thereafter, the mixture was further diluted with PBS (7 mL) and centrifuged at 1000 g, 30° C. for 10 min in Amicon Ultra-15-100K to a volume of less than 1.5 mL. PBS (15 mL) was added, and the solution was centrifuged again to about 500-1000 μL. Finally, the MEND solution was adjusted by diluting with PBS to the object lipid concentration.
The particle size and surface potential of various MENDs were measured according to the method described in [Experimental Example 2] and the results are shown in Table 6.

TNF-α = test: Cytokine production by MEND administration, TNF-α (ELISA); type: in vivo, ICR mice; settings: pCpGfree-Luc(0), 40 μg DNA
Description: (§1) MENDs used in [Experimental Example 12] were each administered to 5-week-old male ICR mice from the tail vein in an amount corresponding to 40 μg DNA. 1, 3, 6, 24 hr later, the blood was collected from the heart, and TNF-α, IFN-γ, IL-12p70 were measured using Quantikine ELISA kit (R&D Systems).

IFN-γ = test: Cytokine production by MEND administration, IFN-γ (ELISA); type: in vivo, ICR mice; settings: pCpGfree-Luc(0), 40 μg DNA
Description: as §1

PDI [1]	size (nm) [1]	zeta (mV) [1]	Structure (SMILES)	TNF-α blood concentration (TNF-α)	IFN-γ blood concentration (IFN-γ)
0.076	110 nm	−9.5 mV	Cc1c(C)c2c(c(C)c1OC(=O)CCC(=O)OCCCN(C)CCSSCCN(C)CCCOC(=O)CCC(=O)Oc1c(C)c(C)c3c(c1C)CCC(C)(CCCC(C)CCCC(C)CCCC(C)C)O3)CCC(C)(CCCC(C)CCCC(C)CCCC(C)C)O2 (centres unmarked) [Example B-2-5]	–	–
–	–	–	CCCCCCCCCCCCCC(=O)OCCCN(C)CCSSCCN(C)CCCOC(=O)CCCCCCCCCCCCC [Example B-2]	maintained the normal value at any time point	maintained the normal value at any time point
